# Source: patent US9212201B2, “Antifungal and antiparasitic polyene macrolides” (priority 2010, dated 2015)
# Like-named read-outs stand apart in the source and are kept apart here.
# What was measured:
# Water solubility = type: physicochemical; details: in words
# C. albicans = assay: In vitro antifungal susceptibility CLSI M27-A2 (MIC, MFC); type: cell-based; details: C. albicans (10)
# C. glabrata = assay: as above; type: cell-based; details: C. glabrata (10)
# C. tropicalis = assay: as above; type: cell-based; details: C. tropicalis (10)
# C. kefyr = assay: as above; type: cell-based; details: C. kefyr (10)
# C. krusei = assay: as above; type: cell-based; details: C. krusei (10)
# C. rugosa = assay: as above; type: cell-based; details: C. rugosa (2)
# C. guilliermondii = assay: as above; type: cell-based; details: C. guilliermondii (2)
# C. dubliniensis = assay: In vitro antifungal susceptibility CLSI M27-A2 (MIC); type: cell-based; details: C. dubliniensis (5)
# Experimental: (§1) In addition, MFC ([…]) was done for each species. The geometric mean (GM) was calculated for each isolate using all three results. All testing was performed in triplicate to verify the reproducibility of the data.
# Eighty-three Candida strains were evaluated. This included 12 different Candida species, which are the species that are most commonly involved in the majority of candidal infections in humans. The species include ten isolates of C. albicans, C. glabrata, C. parapsilosis, C. tropicalis, C. krusei, C. lusitaniae, and C. kefyr, along with five isolates of C. dubliniensis, and two isolates each of C. guilliermondii and C. rugosa. In addition, there was also one isolate each of C. sake, C. lipolytica, C. sphaerica and C. norvegica.
# Acremonium spp. = assay: In vitro antifungal susceptibility CLSI M38-A (MIC); type: cell-based; details: 5 isolates
# Experimental: as §1
# (§2) Several of the more common molds were also tested and evaluated including five strains of Alternaria, Cladosporium, Scopulariopsis, Acremonium, and Paecilomyces. Also evaluated were some of the more uncommon fungi such as Exophilia jeanselmei (3), Emmonsia parvum (Chrysporium parvum) (2) and Epioccum spp. (2). Conventional ATCC strains of different Candida and Aspergillus species were used as controls.
# Alternaria spp. = assay: as above; type: cell-based; details: 5 isolates
# Experimental: as §1, §2
# Cladosporium spp. = assay: as above; type: cell-based; details: 5 isolates
# Experimental: as §1, §2
# [1] = system: Emmonsia parvum (Chrysporium parvum); assay: as above; type: cell-based; details: 2 isolates
# Experimental: as §1, §2
# Epioccum spp. = assay: as above; type: cell-based; details: 2 isolates
# Experimental: as §1, §2
# Paecilomyces spp. = assay: as above; type: cell-based; details: 5 isolates
# Experimental: as §1, §2
# Scopulariopsis spp. = assay: as above; type: cell-based; details: 5 isolates
# Experimental: as §1, §2
# E. jeanselmei = assay: as above; type: cell-based, Exophilia jeanselmei; details: 3 isolates
# Experimental: as §1, §2
# Coccidioides sp = type: cell-based
# Blastomyces dermatitidis = assay: Broth macrodilution MIC/MFC against endemic fungal pathogens; type: cell-based; details: for MFC: >96% kill of the inoculum
# Histoplasma capsulatum = type: cell-based; details: 4 of the H isolates
# [2] = system: 14 clinical isolates: Coccidioides, Blastomyces, Histoplasma capsulatum, Paracoccidioides; type: cell-based; details: of 14 isolates
# Naegleria fowleri = assay: Primary amoebic meningoencephalitis in mice; type: in vivo, Balb/c mice; details: 9 mg/kg/day for a total of 10 days
# [3] = background statement; cited from earlier work
# [4] = system: Candida albicans (ATCC 44858); details: 3 mg/kg PO; 15-day observation
# [5] = system: L. donovani intracellular amastigotes
# [6] = human, in vivo; cited from earlier work
# [7] = Blastomyces dermatitidis isolate 1
# [8] = Blastomyces dermatitidis isolate 2
smiles,measurement,setting,value
"C[C@@H]1[C@H](O)[C@@H](C)/C=C/C=C/C=C/C=C/C=C/C=C/C=C/[C@H](O[C@@H]2O[C@H](C)[C@@H](O)[C@H](N)[C@@H]2O)C[C@@H]2O[C@](O)(C[C@@H](O)C[C@@H](O)[C@H](O)CC[C@@H](O)C[C@@H](O)CC(=O)O[C@H]1C)C[C@H](O)[C@H]2C(=O)O [Amphotericin B, amphotericin B]",Water solubility,Water solubility,insoluble
same,GM (geometric mean MIC),C. albicans,0.612 µg/mL
same,MFC,C. albicans,1 µg/mL
same,MIC50,C. albicans,0.5 µg/mL
same,MIC90,C. albicans,1 µg/mL
same,MIC Range,C. albicans,0.12 to 1 µg/mL
same,GM (geometric mean MIC),C. glabrata,0.9 µg/mL
same,MFC,C. glabrata,1 µg/mL
same,MIC50,C. glabrata,1 µg/mL
same,MIC90,C. glabrata,1 µg/mL
same,MIC Range,C. glabrata,0.5 to 1.0 µg/mL
same,MIC50,C. glabrata; listed as amphotericin B,1.0 µg/mL
same,GM (geometric mean MIC),C. tropicalis,0.95 µg/mL
same,MFC,C. tropicalis,2 µg/mL
same,MIC50,C. tropicalis,1 µg/mL
same,MIC90,C. tropicalis,1 µg/mL
same,MIC Range,C. tropicalis,0.5 to 1.0 µg/mL
same,GM (geometric mean MIC),C. kefyr,1.25 µg/mL
same,MFC,C. kefyr,1 µg/mL
same,MIC50,C. kefyr,1 µg/mL
same,MIC90,C. kefyr,2 µg/mL
same,MIC Range,C. kefyr,0.12 to 2.0 µg/mL
same,GM (geometric mean MIC),C. krusei,1.29 µg/mL
same,MFC,C. krusei,2 µg/mL
same,MIC50,C. krusei,1 µg/mL
same,MIC90,C. krusei,2 µg/mL
same,MIC Range,C. krusei,0.5 to 2.0 µg/mL
same,MIC50,C. krusei; listed as amphotericin B,1.0 µg/mL
same,GM (geometric mean MIC),C. rugosa,0.83 µg/mL
same,MFC,C. rugosa,2 µg/mL
same,MIC Range,C. rugosa,0.5 to 1.0 µg/mL
same,GM (geometric mean MIC),C. guilliermondii,0.5 µg/mL
same,MFC,C. guilliermondii,1 µg/mL
same,MIC Range,C. guilliermondii,0.5 µg/mL
same,GM (geometric mean MIC),C. dubliniensis,0.4 µg/mL
same,MIC50,C. dubliniensis,0.5 µg/mL
same,MIC90,C. dubliniensis,1 µg/mL
same,MIC Range,C. dubliniensis,0.125 to 1 µg/mL
same,GM,Acremonium spp.,8 µg/mL
same,MIC50,Acremonium spp.,8 µg/mL
same,MIC Range,Acremonium spp.,8 µg/mL
same,GM,Alternaria spp.,0.25 µg/mL
same,MIC50,Alternaria spp.,0.25 µg/mL
same,MIC Range,Alternaria spp.,0.25 to 0.5 µg/mL
same,GM,Cladosporium spp.,0.7 µg/mL
same,MIC50,Cladosporium spp.,0.25 µg/mL
same,MIC Range,Cladosporium spp.,0.25 to 0.5 µg/mL
same,GM,[1],0.25 µg/mL
same,MIC50,[1],0.25 µg/mL
same,MIC Range,[1],0.25 µg/mL
same,GM,Epioccum spp.,1 µg/mL
same,MIC50,Epioccum spp.,1 µg/mL
same,MIC Range,Epioccum spp.,1 µg/mL
same,GM,Paecilomyces spp.,1.4 µg/mL
same,MIC50,Paecilomyces spp.,1 µg/mL
same,MIC Range,Paecilomyces spp.,0.5 to 2 µg/mL
same,GM,Scopulariopsis spp.,0.95 µg/mL
same,MIC50,Scopulariopsis spp.,1 µg/mL
same,MIC Range,Scopulariopsis spp.,0.5 to 1 µg/mL
same,GM,E. jeanselmei,4.67 µg/mL
same,MIC50,E. jeanselmei,4 µg/mL
same,MIC Range,E. jeanselmei,2 to 8 µg/mL
same,MFC higher than corifungin,Coccidioides sp; 2 C isolates,≥ 4 fold
same,MFC,Coccidioides sp; 3 of the C isolates,≥ 8 µg/mL
same,MIC,Coccidioides sp; 3 of the C isolates,4 µg/mL
same,MIC,Coccidioides sp; Coccidioides sp isolate 1,2 µg/mL
same,MFC,"Coccidioides sp; Coccidioides sp isolate 1, >96% kill of the inoculum",8 µg/mL
same,MIC,Coccidioides sp; Coccidioides sp isolate 2,4 µg/mL
same,MFC,"Coccidioides sp; Coccidioides sp isolate 2, >96% kill of the inoculum",8 µg/mL
same,MIC,Coccidioides sp; Coccidioides sp isolate 3,1 µg/mL
same,MFC,"Coccidioides sp; Coccidioides sp isolate 3, >96% kill of the inoculum",> 8 µg/mL
same,MIC,Coccidioides sp; Coccidioides sp isolate 4,4/4 mcg/mL
same,MFC,"Coccidioides sp; Coccidioides sp isolate 4, >96% kill of the inoculum",4/4 mcg/mL
same,MIC,Coccidioides sp; Coccidioides sp isolate 5,4/4 mcg/mL
same,MFC,"Coccidioides sp; Coccidioides sp isolate 5, >96% kill of the inoculum",4/4 mcg/mL
same,MIC,Blastomyces dermatitidis; [7],2/2 mcg/mL
same,MFC,Blastomyces dermatitidis; [7],2/2 mcg/mL
same,MIC,Blastomyces dermatitidis; [8],1/1 mcg/mL
same,MFC,Blastomyces dermatitidis; [8],1/1 mcg/mL
same,MFC,Histoplasma capsulatum,0.5 µg/mL
same,MIC,Histoplasma capsulatum,0.5 µg/mL
same,cases in which MFCs equaled MICs,[2],11/14
same,survival,Naegleria fowleri,no improvement in survival over the control
same,Water solubility,[3],insoluble in water
same,increase in survival rate,[4],80%
same,IC50,[5],50 nM
same,patients with nephrotoxicity,[6],≤ 80%
